The results in this text go back to article PMC9686985, “Chimeric Peptides Derived from Bovine Lactoferricin and Buforin II: Antifungal Activity against Reference Strains and Clinical Isolates of Candida spp” (Antibiotics, 2022).

Where two headings read alike, the source gives them in different places. Positions of bridges follow the written chain, without caps; N, C: chain ends. Non-standard residues stand in square brackets, D forms with d. Residues, ends and D or L forms follow the SMILES beside them. Chains are numbered I, II in the order given. No end group written: not given here. Ahx = NCCCCCC(=O)O

Common to all, as to type: cell-based, Candida albicans
The subject of assay [1] is C. albicans ATCC SC5314. On the procedure:
(§1) Antifungal susceptibility testing was carried out using the broth microdilution (BMD) method, following the CLSI M27-A3 guidelines with slight modifications. Briefly, cells (0.5–2.5 × 10^3 CFU/mL) were incubated with peptides (200, 100, 50, 25, 12.5, and 6.25 µg/mL) at 37 °C for 48 h. MICs were visualized and densitometry (595 nm, microplate reader, Bio-Rad, ᵢMark^TM) was used to determine the lowest concentration of peptide that caused a significant decrease (MIC/2 or ≥50%) compared with the growth control (cells incubated in absence of peptide) (n = 3). In order to verify that the peptides were able to kill the yeast cells, the plates were also evaluated for minimum fungicidal concentration (MFC). Briefly, aliquots from each well from susceptibility testing assays were transferred to plates containing Sabouraud dextrose agar (SDA), which were then incubated at 37 °C for 24 h. The highest dilution with no growth on the agar plate was considered to be the MFC.

Assay [2] deals with C. albicans 256 HUSI-PUJ. The settings on record: for MFC: 24 h; for MIC: 48 h. As to the method:
as §1

Assay [3] relates to C. albicans ATCC SC5314. As to the method: (§2) The in vitro interactions between the peptides (C6, C8, and C9) and the FLC drug were evaluated in a checkerboard assay, as previously described by Cokol et al.. Briefly, each isolate was prepared by picking colonies from an overnight culture in SBD at 37 °C and suspended in a sterile normal saline PBS buffer. The fungal inoculum was adjusted to 0.5 MacFarland and the inoculum was adjusted to 0.5–2.5 × 10^3 CFU/mL. The drug-peptide combinations were formed over a range of concentrations: 0 (control) and 0.06 to 2 times the MIC [51]. The fractional inhibitory concentration index (FICI) was calculated as follows:
(§3) FICI=CML peptide in combination/CMI peptide alone+CML FLC in combination/CMI FLC alone
(§4) The calculated FICI was reported as synergy with values FICI ≤ 0.5, additive FICI > 0.5–1, indifference FICI > 1–4, and antagonism FICI ≥ 4 [52].
(§5) A synergistic effect was considered to be when the effect of the combination exceeded the effects of the individual components. An additive effect was when the effect of the combination was equal to the sum of the effects of the individual components.
The source holds these as a separate data set.

In assay [4] the test system is C. albicans 256 HUSI-PUJ. On the procedure:
as §2, §3, §4, §5

A further assay has as its system C. albicans 256. Conditions: for Time-kill result: Fungicide concentration / Time-kill result: Fungistatic concentration: after 48 h of incubation, RPMI 1640, 37 °C, Bioscreen C. On the procedure:
(§6) A time-kill kinetic assay was carried out according to the method previously described by Pfaller and coworkers with minor modifications. The peptides (C5, C6, C8, and C9) diluted in RPMI were tested at a range of concentrations: 0 (control), 0.2, 0.5, 1, and 2 times the MIC value for each strain. The isolates were subcultured on SBD, and then an inoculum was adjusted to a 0.5–2.5 × 10^3 CFU/mL in an RPMI 1640 medium. Yeast inoculum (150 uL) was added to a 100-well plate containing serial dilutions of the peptides. The plates were incubated with agitation at 37 °C in a plate reader (Bioscreen C MBR automated turbidometric analyzer, Growth Curves Ltd., Helsinki, Finland), which takes hourly absorbance readings. Moreover, fluconazole MICs were used as a control. The readings were analyzed with Bioscreen software (Growth Curves USA, Piscataway, NJ, USA) and GraphPad Prism 8.0.1 (GraphPad Soft-ware, San Diego, CA, USA). Statistical comparisons were made using an analysis of variance (two-way ANOVA) followed by a Tukey–Kramer post hoc test. P values less than 0.005 were considered significant. […] Moreover, previously determined FLC MICs (data not shown) were used as a control.

A further assay deals with C. albicans SC5314. Conditions: for Time-kill result: Fungicide concentration / Time-kill result: Fungistatic concentration: after 48 h of incubation, RPMI 1640, 37 °C, Bioscreen C. As to the method: as §6
Setting [5] is: FLC-sensitive reference strain, aliquots plated on SDA, 37 °C, 24 h, no growth.
[6] abbreviates: FLC-sensitive reference strain, broth microdilution CLSI M27-A3, 37 °C, 48 h, ≥50% decrease vs growth control, n = 3.
[7] abbreviates: FLC-resistant clinical isolate, aliquots plated on SDA, 37 °C, no growth.
The mark [8] stands for this setting: FLC-resistant clinical isolate, broth microdilution CLSI M27-A3, 37 °C, ≥50% decrease vs growth control, n = 3.
Where [9] appears, read: fungistatic = growth inhibition >70% for 48 h.

In the case of “RLLRRLLR [BFII (32–35)Pal, reference compound]”, the minimum fungicidal concentration (MFC) (usually the smallest concentration meeting the test's criterion for killing the fungus) was over 183 µM in the assay on C. albicans ATCC SC5314 [1] (ATCC SC5314, 24 h) and over 183 µM in the assay on C. albicans 256 HUSI-PUJ [2] (256 HUSI-PUJ). The minimal inhibitory concentration (MIC) (commonly the smallest concentration in the dilution series that meets the test's criterion for growth inhibition) against C. albicans ATCC SC5314 [1] (ATCC SC5314, 48 h) is reported as over 183 µM; against C. albicans 256 HUSI-PUJ [2] (256 HUSI-PUJ) it was over 183 µM.

On to RRWQWRRLLR-NH2 [C1], for which the minimum fungicidal concentration (MFC) is listed as over 131 µM with C. albicans ATCC SC5314 [1] (ATCC SC5314, 24 h) and over 131 µM against C. albicans 256 HUSI-PUJ [2] (256 HUSI-PUJ). In addition, the minimal inhibitory concentration (MIC) was found to be 131 µM with C. albicans ATCC SC5314 [1] (ATCC SC5314, 48 h) and 66 µM in the assay on C. albicans 256 HUSI-PUJ [2] (256 HUSI-PUJ).

Take `CC(C)C[C@H](NC(=O)[C@H](CC(C)C)NC(=O)[C@H](CCCNC(=N)N)NC(=O)CCCCCNC(=O)[C@H](CCCCNC(=O)[C@H](CCCNC(=N)N)NC(=O)[C@H](Cc1c[nH]c2ccccc12)NC(=O)[C@H](CCC(N)=O)NC(=O)[C@H](Cc1c[nH]c2ccccc12)NC(=O)[C@H](CCCNC(=N)N)NC(=O)[C@@H](N)CCCNC(=N)N)NC(=O)[C@H](CCCNC(=N)N)NC(=O)[C@H](Cc1c[nH]c2ccccc12)NC(=O)[C@H](CCC(N)=O)NC(=O)[C@H](Cc1c[nH]c2ccccc12)NC(=O)[C@H](CCCNC(=N)N)NC(=O)[C@@H](N)CCCNC(=N)N)C(=O)N[C@@H](CCCNC(=N)N)C(N)=O` [C8] (I: H-RRWQWRK[Ahx]RLLR-NH2 / II: H-RRWQWR; amide I:7-II:C; N-terminus assumed): the minimum fungicidal concentration (MFC) in the assay on C. albicans ATCC SC5314 [1] (ATCC SC5314, 24 h) turned out to be 37 µM; in the assay with C. albicans ATCC SC5314 [1] (setting [5]) it was 100 µg/mL; against C. albicans 256 HUSI-PUJ [2] (256 HUSI-PUJ), 37 µM; against C. albicans 256 HUSI-PUJ [2] (setting [7]) it was 100 µg/mL. Moreover, the minimal inhibitory concentration (MIC) against C. albicans ATCC SC5314 [1] (ATCC SC5314, 48 h) is 37 µM; with C. albicans ATCC SC5314 [1] (setting [6]), 100 µg/mL; in the assay with C. albicans 256 HUSI-PUJ [2] (256 HUSI-PUJ), 37 µM; against C. albicans 256 HUSI-PUJ [2] (setting [8]), 100 µg/mL. Also, the “Effect of the combination with FLC (by FICI)” value in the assay on C. albicans ATCC SC5314 [3] (checkerboard) is recorded as “synergistic”; in the assay on C. albicans 256 HUSI-PUJ [4] (checkerboard), “indifferent”. Moreover, the “MICa/A: factor by which the chimera is potentiated in combination” value with C. albicans ATCC SC5314 [3] (peptide combined with FLC) was found to be 8; in the assay with C. albicans 256 HUSI-PUJ [4] (peptide combined with FLC), 2. Also, the Inhibition of growth result in the assay on C. albicans 256 (256, 48 h) is listed as “more than 90%”; with C. albicans SC5314 (SC5314, 48 h) it was “more than 90%”. Also, the “Time-kill result: Fungicide concentration” value in the assay on C. albicans 256 (fungicidal = yeast kill ≥99%) was determined as 200 µg/mL; in the assay on C. albicans 256 (value in brackets), 73 µM; in the assay on C. albicans SC5314 (fungicidal = yeast kill ≥99%) it was 200 µg/mL; in the assay with C. albicans SC5314 (value in brackets) it was 73 µM. Moreover, the “Time-kill result: Fungistatic concentration” value was 100 µg/mL with C. albicans 256 (setting [9]), 37 µM in the assay with C. albicans 256 (value in brackets), 100 µg/mL with C. albicans SC5314 (setting [9]) and 37 µM with C. albicans SC5314 (value in brackets). The “Incubation time up to which yeast growth was inhibited” value in the assay on C. albicans 256 (time-kill curve, peptide at 100 µg/mL) is about 40 h. The “Incubation time up to which yeast growth was completely inhibited” value in the assay with C. albicans SC5314 (time-kill curve, peptide at 100 µg/mL (37 µM)) is “about 23 h”.

Regarding `CC(C)C[C@H](NC(=O)[C@H](CC(C)C)NC(=O)[C@H](CCCCN)NC(=O)[C@H](CCCCN)NC(=O)[C@H](CC(C)C)NC(=O)[C@H](CC(C)C)NC(=O)[C@H](CCCCN)NC(=O)CCCCCNC(=O)[C@H](CCCCN)NC(=O)[C@H](Cc1c[nH]c2ccccc12)NC(=O)[C@H](CCC(N)=O)NC(=O)[C@H](Cc1c[nH]c2ccccc12)NC(=O)[C@H](CCCCN)NC(=O)[C@@H](N)CCCCN)C(=O)N[C@@H](CCCCN)C(N)=O` [C7] (H-KKWQWK[Ahx]KLLKKLLK-NH2), the MFC with C. albicans ATCC SC5314 [1] (ATCC SC5314, 24 h) is recorded as over 101 µM; against C. albicans 256 HUSI-PUJ [2] (256 HUSI-PUJ), over 101 µM. Moreover, the MIC amounted to 101 µM against C. albicans ATCC SC5314 [1] (ATCC SC5314, 48 h) and 101 µM against C. albicans 256 HUSI-PUJ [2] (256 HUSI-PUJ).

For `CC(C)C[C@H](NC(=O)[C@H](CC(C)C)NC(=O)[C@@H](N)CCCNC(=N)N)C(=O)N[C@@H](CCCNC(=N)N)C(=O)NCCCCCC(=O)N[C@@H](CCCNC(=N)N)C(=O)N[C@@H](CCCNC(=N)N)C(=O)N[C@@H](Cc1c[nH]c2ccccc12)C(=O)N[C@@H](CCC(N)=O)C(=O)N[C@@H](Cc1c[nH]c2ccccc12)C(=O)N[C@@H](CCCNC(=N)N)C(N)=O` [C4] (H-RLLR[Ahx]RRWQWR-NH2; N-terminus assumed), the MFC against C. albicans ATCC SC5314 [1] (ATCC SC5314, 24 h) is over 122 µM; against C. albicans ATCC SC5314 [1] (setting [5]), over 200 µg/mL; in the assay on C. albicans 256 HUSI-PUJ [2] (256 HUSI-PUJ), over 122 µM; in the assay on C. albicans 256 HUSI-PUJ [2] (setting [7]) it was over 200 µg/mL. The minimal inhibitory concentration (MIC) with C. albicans ATCC SC5314 [1] (ATCC SC5314, 48 h) is over 122 µM; against C. albicans ATCC SC5314 [1] (setting [6]) it was over 200 µg/mL; against C. albicans 256 HUSI-PUJ [2] (256 HUSI-PUJ), 122 µM; against C. albicans 256 HUSI-PUJ [2] (setting [8]), 200 µg/mL.

Regarding `CC(C)C[C@H](NC(=O)[C@H](CC(C)C)NC(=O)[C@H](CCCNC(=N)N)NC(=O)CCCCCNC(=O)[C@H](CCCNC(=N)N)NC(=O)[C@H](Cc1c[nH]c2ccccc12)NC(=O)[C@H](CCC(N)=O)NC(=O)[C@H](Cc1c[nH]c2ccccc12)NC(=O)[C@H](CCCNC(=N)N)NC(=O)[C@@H](N)CCCNC(=N)N)C(=O)N[C@@H](CCCNC(=N)N)C(N)=O` [C2] (H-RRWQWR[Ahx]RLLR-NH2; N-terminus assumed), the MFC against C. albicans ATCC SC5314 [1] (ATCC SC5314, 24 h) was over 122 µM; in the assay with C. albicans ATCC SC5314 [1] (setting [5]), over 200 µg/mL; in the assay on C. albicans 256 HUSI-PUJ [2] (256 HUSI-PUJ), over 122 µM; in the assay on C. albicans 256 HUSI-PUJ [2] (setting [7]), over 200 µg/mL. In addition, the MIC was found to be 122 µM against C. albicans ATCC SC5314 [1] (ATCC SC5314, 48 h); 200 µg/mL in the assay with C. albicans ATCC SC5314 [1] (setting [6]); 122 µM with C. albicans 256 HUSI-PUJ [2] (256 HUSI-PUJ); 200 µg/mL in the assay with C. albicans 256 HUSI-PUJ [2] (setting [8]).
